The results in this text go back to ChEMBL document CHEMBL1201862, “PubChem BioAssay data set” (2004).

Among the test systems are NCI/ADR-RES; PC-3; ACHN; OVCAR-8; NCI-H522; SR; MCF7; M14; SNB-75; MDA-MB-435; NCI-H23; SK-MEL-2; SK-OV-3; RXF 393; 786-0; KM12; BT-549; SW-620; HCC 2998.
Holding throughout (assay): NCI-60 cell line screen, 48 h

Molecules are shown by their SMILES.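 96-well plates; 48 h exposure; 5 concentrations. Endpoints by linear interpolation between flanking doses. Not reached: highest tested concentration assigned. GI50: concentration for 50% inhibition of growth.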 Active and inactive are the calls of the source. Cut-off read from the data, not from the text of the source: active = GI50 up to about 1.1 µM and inactive = higher.

`CCOC(=O)Nc1cc2c(c(N)n1)N=C(c1ccc(Cl)cc1Cl)CN2`: the GI50 in the assay with NCI/ADR-RES was < 0.0154 µM (active); in the assay with PC-3, < 0.0129 µM (active); in the assay on ACHN, 0.0535 µM (active); in the assay on OVCAR-8, 0.0276 µM (active); in the assay on NCI-H522, < 0.0213 µM (active); in the assay with SR, < 0.01 µM (active). Further, the GI50 in the assay on MCF7 is 0.132 µM (active); with M14, 0.0766 µM (active); with SNB-75, < 0.01 µM (active); with MDA-MB-435 it was < 0.01 µM (active); with NCI-H23, 0.0834 µM (active); in the assay with SK-MEL-2, < 0.01 µM (active). Moreover, the GI50 in the assay on SK-OV-3 was 0.509 µM (active); with RXF 393, < 0.01 µM (active); with 786-0, < 0.0217 µM (active); in the assay with KM12 it was < 0.0174 µM (active); with BT-549, 0.791 µM (active); with SW-620, < 0.0194 µM (active). Moreover, the GI50 with HCC 2998 was 0.0995 µM (active).
For the compound `Cc1c(O)c(OC2OC(CO)C(O)C(O)C2O)cc2c1CC[C@@H]1C2(C)C(=O)C[C@]2(C)[C@@H]([C@@](C)(O)C3CCC(C)(C)O3)[C@H](O)C[C@@]12C` (some centres undefined), the GI50 in the assay on NCI/ADR-RES, with PC-3, in the assay on ACHN, in the assay on OVCAR-8, in the assay on NCI-H522 and in the assay with SR was > 100 µM (inactive) throughout. For the same compound, the GI50 with MCF7, with M14, with SNB-75, in the assay on MDA-MB-435, in the assay on NCI-H23 and in the assay with SK-MEL-2 was > 100 µM (inactive) throughout. The GI50 in the assay on SK-OV-3, in the assay on RXF 393, with 786-0, in the assay on KM12, in the assay with BT-549 and in the assay on SW-620 was > 100 µM (inactive) in each case. In the assay on HCC 2998, the GI50 was > 100 µM (inactive).
For `Cn1c(=O)c2c(nc3n(CCCCl)c(=O)ccn23)n(C)c1=O`, the GI50 in the assay on NCI/ADR-RES, in the assay on PC-3, in the assay with ACHN, in the assay on OVCAR-8, in the assay on NCI-H522 and in the assay on SR was > 100 µM (inactive) in each case. For the same compound, the GI50 with MCF7, in the assay with M14, in the assay with SNB-75, with MDA-MB-435, with NCI-H23 and with SK-MEL-2 was > 100 µM (inactive) throughout. For the same compound, the GI50 in the assay on SK-OV-3, in the assay with RXF 393, in the assay with 786-0, in the assay with KM12, with BT-549 and in the assay with SW-620 was > 100 µM (inactive) in each case. Moreover, in the assay on HCC 2998, the GI50 is > 100 µM (inactive).
Turning to `Cc1c(-c2ccccc2)[nH]c2ccc(Cl)cc2c1=O`, the GI50 is 29.5 µM (inactive) in the assay with NCI/ADR-RES; 47.6 µM (inactive) in the assay on PC-3; 29 µM (inactive) in the assay with ACHN; 22.3 µM (inactive) in the assay with OVCAR-8; 21.3 µM (inactive) in the assay with NCI-H522; 12.2 µM (inactive) with SR. The GI50 in the assay with MCF7 is 25.2 µM (inactive); in the assay on M14 it was 34.7 µM (inactive); in the assay with SNB-75 it was 26 µM (inactive); with MDA-MB-435 it was 16.4 µM (inactive); in the assay with NCI-H23, 23.4 µM (inactive); in the assay on SK-MEL-2, 18 µM (inactive). Besides, the GI50 with SK-OV-3 was 21.7 µM (inactive); with RXF 393, 20 µM (inactive); in the assay with 786-0, 29.8 µM (inactive); in the assay on KM12, 0.263 µM (active); in the assay with BT-549, 62.2 µM (inactive); in the assay with SW-620 it was 75.2 µM (inactive). Further, the GI50 in the assay on HCC 2998 was 23.2 µM (inactive).
Turning to `CCCCCCCCCc1cccc(N2C(N)=NC(N)=NC2(C)C)c1`, the GI50 in the assay with NCI/ADR-RES was 4.62 µM (inactive); with PC-3, < 0.0184 µM (active); with ACHN, < 0.0158 µM (active); in the assay on OVCAR-8, < 0.01 µM (active); in the assay on NCI-H522 it was 0.0451 µM (active); with SR it was < 0.01 µM (active). The GI50 in the assay with MCF7 is < 0.0204 µM (active); in the assay on M14, < 0.01 µM (active); in the assay on SNB-75 it was 0.735 µM (active); with MDA-MB-435 it was 0.0165 µM (active); in the assay on NCI-H23, < 0.01 µM (active); with SK-MEL-2, 0.993 µM (active). In addition, the GI50 was 1.62 µM (inactive) in the assay on SK-OV-3; 1.95 µM (inactive) with RXF 393; < 0.01 µM (active) in the assay with 786-0; 0.0139 µM (active) with KM12; 1 µM (active) in the assay on BT-549; < 0.01 µM (active) in the assay with SW-620. For the same compound, the GI50 in the assay on HCC 2998 is < 0.01 µM (active).
`Cc1ccc(N2C(=O)C(=O)N(/N=C3\C(=O)Nc4ccccc43)C2=S)cc1`: the GI50 in the assay on NCI/ADR-RES was 28.8 µM (inactive); in the assay with PC-3, 39.4 µM (inactive); in the assay on ACHN it was 67.6 µM (inactive); with OVCAR-8, 59.3 µM (inactive); in the assay on NCI-H522, 63.2 µM (inactive); in the assay with SR, 38.7 µM (inactive). Also, the GI50 is 43.2 µM (inactive) in the assay on MCF7; > 100 µM (inactive) in the assay on M14; > 100 µM (inactive) with SNB-75; 36.6 µM (inactive) in the assay on MDA-MB-435; 86.7 µM (inactive) in the assay on NCI-H23; 30.3 µM (inactive) with SK-MEL-2. Also, the GI50 in the assay with SK-OV-3 is > 100 µM (inactive); in the assay on RXF 393 it was 39.1 µM (inactive); in the assay with 786-0 it was 46.6 µM (inactive); in the assay on KM12 it was 65.8 µM (inactive); with BT-549 it was 85.3 µM (inactive); in the assay with SW-620 it was 44.2 µM (inactive). In the assay on HCC 2998, the GI50 was 93.5 µM (inactive).
As to `CC(C)OP(=O)(OC(C)C)C(Nc1cccc(C(F)(F)F)c1)c1ccccc1` (centres undefined), the GI50 was 32.7 µM (inactive) with NCI/ADR-RES; 37.2 µM (inactive) with PC-3; 35.6 µM (inactive) in the assay on ACHN; 59.4 µM (inactive) in the assay with OVCAR-8; 20.2 µM (inactive) in the assay with NCI-H522; 21.9 µM (inactive) in the assay on SR. Besides, the GI50 with MCF7 is 46.9 µM (inactive); in the assay on M14 it was 38.5 µM (inactive); in the assay on SNB-75, > 100 µM (inactive); in the assay with MDA-MB-435 it was 41.6 µM (inactive); in the assay on NCI-H23 it was 55.6 µM (inactive); in the assay with SK-MEL-2, 50.7 µM (inactive). In addition, the GI50 in the assay on SK-OV-3 was > 100 µM (inactive); in the assay with RXF 393, 49.5 µM (inactive); in the assay on 786-0 it was 70.3 µM (inactive); with KM12 it was 40.6 µM (inactive); with BT-549, 17.7 µM (inactive); with SW-620, > 10 µM (inactive). Moreover, the GI50 in the assay with HCC 2998 was 55.6 µM (inactive).
For the compound `COc1ccc2c(c1)[nH]c1c(/C=C/c3ccccc3)nccc12`, the GI50 is 11 µM (inactive) in the assay with NCI/ADR-RES; 16.1 µM (inactive) in the assay on PC-3; 12.2 µM (inactive) in the assay on ACHN; 14.2 µM (inactive) with OVCAR-8; 12.4 µM (inactive) in the assay on NCI-H522; 3.47 µM (inactive) in the assay on SR. In addition, the GI50 in the assay on MCF7 is 16 µM (inactive); with M14, 15.9 µM (inactive); in the assay with SNB-75, 12.3 µM (inactive); with MDA-MB-435, 16.2 µM (inactive); in the assay with NCI-H23 it was 15.3 µM (inactive); in the assay on SK-MEL-2, 16.2 µM (inactive). In addition, the GI50 in the assay on SK-OV-3 was 13.8 µM (inactive); in the assay on RXF 393, 14.8 µM (inactive); with 786-0, 15.1 µM (inactive); in the assay on KM12, 14.1 µM (inactive); with BT-549, 12.8 µM (inactive); in the assay on SW-620, 15.9 µM (inactive). Besides, the GI50 in the assay with HCC 2998 was 13 µM (inactive).
With `Cc1nc2sccn2c1/C=C1/C(=O)Nc2cccc(Cl)c21`, the GI50 in the assay with NCI/ADR-RES was 34.2 µM (inactive); in the assay on PC-3 it was 80.7 µM (inactive); in the assay on ACHN, > 100 µM (inactive); in the assay with OVCAR-8, > 100 µM (inactive); in the assay on NCI-H522 it was 45.8 µM (inactive); with SR, 61.9 µM (inactive). Moreover, the GI50 with MCF7 was 23 µM (inactive); in the assay with M14 it was > 100 µM (inactive); in the assay on SNB-75 it was > 100 µM (inactive); in the assay with MDA-MB-435 it was 11.6 µM (inactive); with NCI-H23 it was > 100 µM (inactive); in the assay with SK-MEL-2, > 100 µM (inactive). Also, the GI50 was > 100 µM (inactive) in the assay on SK-OV-3; > 100 µM (inactive) with RXF 393; > 100 µM (inactive) in the assay on 786-0; 38.3 µM (inactive) in the assay with KM12; > 100 µM (inactive) in the assay on BT-549; 41.4 µM (inactive) with SW-620. The GI50 with HCC 2998 is > 100 µM (inactive).
As to `CCCCC(=C=C(C)CO)C1CCCN1C(=O)OC(C)(C)C` (centres undefined), the GI50 was 16.8 µM (inactive) in the assay with NCI/ADR-RES; 18.5 µM (inactive) in the assay with PC-3; 24.8 µM (inactive) in the assay with ACHN; 18.2 µM (inactive) with OVCAR-8; 14.5 µM (inactive) with NCI-H522; 15.1 µM (inactive) in the assay with SR. The GI50 in the assay with MCF7 is 20.4 µM (inactive); in the assay on M14 it was 18.5 µM (inactive); in the assay on SNB-75 it was 22.5 µM (inactive); with MDA-MB-435 it was 18.8 µM (inactive); with NCI-H23 it was 19 µM (inactive); in the assay with SK-MEL-2, 16.5 µM (inactive). The GI50 in the assay on SK-OV-3 was 24.5 µM (inactive); with RXF 393, 15.2 µM (inactive); in the assay with 786-0, 16.4 µM (inactive); with KM12 it was 18.4 µM (inactive); with BT-549 it was 16.1 µM (inactive); in the assay on SW-620, 29.2 µM (inactive). Besides, in the assay on HCC 2998, the GI50 is 8.02 µM (inactive).
Turning to `O=C1C(Cl)=C(N2CCOCC2)C(=O)c2c(O)ccc(O)c21`, the GI50 with NCI/ADR-RES was 0.366 µM (active); in the assay on PC-3, 0.536 µM (active); in the assay with ACHN, 0.263 µM (active); in the assay on OVCAR-8 it was 0.368 µM (active); in the assay with NCI-H522 it was 0.286 µM (active); with SR, 1.4 µM (inactive). Further, the GI50 in the assay with MCF7 was 0.213 µM (active); in the assay on M14, 0.182 µM (active); in the assay with SNB-75 it was 0.667 µM (active); with MDA-MB-435 it was 0.204 µM (active); in the assay on NCI-H23 it was 0.255 µM (active); in the assay on SK-MEL-2 it was 0.288 µM (active). Besides, the GI50 with SK-OV-3 was 2.81 µM (inactive); in the assay with RXF 393, 0.222 µM (active); in the assay with 786-0 it was 0.296 µM (active); in the assay on KM12, 1.64 µM (inactive); in the assay on BT-549, 0.173 µM (active); in the assay with SW-620 it was 0.156 µM (active). Further, in the assay with HCC 2998, the GI50 is 1.67 µM (inactive).
